Assay results reported in US20180273531A1, “PYRIMIDINE COMPOUND AND MEDICAL USE THEREOF” (Japan Tobacco Inc., priority 2004, published 2018).

Columns and labels:
Type in all cases: cell-based
[1] = tested on: ACHN cells or HT-29 cells; assay: Cell cycle analysis (flow cytometry, CycleTEST PLUS); conditions: test substance less than 10 μM, 24 hrs, compared to DMSO, n=2, read-out: CELL RATIO OF G0/G1 PHASE
Method: ACHN cells or HT-29 cells were cultured in a 6 well plate at 2.5×10^5 cells/1.8 mL/well for 24 hrs, then a test substance (less than 10 μM) dissolved in DMSO was added. After 24 hrs, cells were detached using trypsin-EDTA and the DNA content of single cell was analyzed by flow cytometry method using a CycleTEST PLUS (BECKTON DICKINSON) kit, and the proportion of the cells in the G0/G1 phase·S phase·G2/M phase was calculated. As a control, DMSO was used and the test was performed with n=2.

[2] = tested on: colorectal cancer cell line HT-29 cells; assay: Growth inhibitory effect against cancer cell lines (3H-thymidine uptake), HT-29; conditions: Homo sapiens, HT-29, inhibition of 3H-thymidine uptake; test substance 18 hrs, then 3H-thymidine 6 hrs; triplicate
Method in brief: (§1)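 IC50 = concentration reducing ^3H-thymidine incorporation to 50% of DMSO control, measured in triplicate. Compound added 24 hrs after plating (1.0×10^4 cells/well); label (0.25 μCi/well) given after 18 hrs of treatment, followed by 6 hrs further culture and scintillation counting of harvested cells.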

[3] = tested on: p15 protein; assay: Evaluation of p15 induction activity (Western blotting); conditions: test substance 0.1 μM, 24 hrs, ACHN cells or HT-29 cells, compared to DMSO, n=2
Method in brief: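 p15 protein quantified by densitometry of anti-p15 Western blots (10 μg protein per lane, mean of n=2). Samples came from HT-29 or ACHN cells given 0.1 μM compound for 24 h after 24 h plating, with DMSO as control.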

[4] = tested on: Renal cancer cell line ACHN cell; assay: Growth inhibitory effect against cancer cell lines (3H-thymidine uptake), ACHN; conditions: Homo sapiens, ACHN
Method in brief: as §1

[5] = tested on: p27 protein; assay: p27 protein induction test (Western blotting); conditions: test substance (0.1 1M), 24 hrs, ACHN cells or HT-29 cells, compared to DMSO, n=2
Method in brief: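 p27 level taken as anti-p27 band density by densitometry, mean of n=2, with DMSO as control. Samples loaded at amount equivalent to 10 μg BSA. Cells were ACHN or HT-29, exposed 24 h to […] test substance after 24 h pre-culture.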

| SMILES | fold induction [1] | IC50 [2] [nM] | fold induction at 0.1 µM [3] | IC50 [4] [nM] | fold induction at 0.1 µM [5] | fold induction at up to 10 µM [1] |
| --- | --- | --- | --- | --- | --- | --- |
| CN(C)c1ccc(Nc2cc(=O)n(C)c3c2c(=O)n(-c2ccccc2)c(=O)n3-c2ccccc2)cc1 [Example 1-7] | ≥ 1.2 | 100 to 1000 | ≥ 1.5 |  |  |  |
| Cn1c(=O)cc(Nc2ccc(Br)cc2)c2c(=O)n(-c3ccccc3)c(=O)n(-c3ccccc3)c21 [Example 1-11] | ≥ 1.2 | 100 to 1000 | ≥ 1.5 |  |  |  |
| Cc1cc(N(C)C)ccc1Nc1cc(=O)n(C)c2c1c(=O)n(-c1ccccc1)c(=O)n2-c1ccccc1 [Example 1-55] | ≥ 1.2 | 100 to 1000 | ≥ 1.5 |  |  |  |
| Cc1cccc(-n2c(=O)n(C)c(=O)c3c(Nc4ccc(Cl)cc4)cc(=O)n(C)c32)c1 [Example 1-86] | ≥ 1.2 |  | ≥ 1.5 |  |  |  |
| CN(C)c1ccc(Nc2cc(=O)n(C)c3c2c(=O)n(C2CC2)c(=O)n3-c2ccccc2)cc1 [Example 1-88] | ≥ 1.2 | 100 to 1000 | ≥ 1.5 | 100 to 1000 |  |  |
| Cn1c(=O)cc(Nc2ccc(Br)cc2)c2c(=O)n(C3CC3)c(=O)n(-c3ccccc3)c21 [Example 1-89] | ≥ 1.2 | 10 to 100 | ≥ 1.5 | 100 to 1000 | ≥ 1.5 |  |
| Cn1c(=O)cc(Nc2ccc(Br)cc2)c2c(=O)n(CC(F)(F)F)c(=O)n(-c3ccccc3)c21 [Example 1-92] | ≥ 1.2 |  | ≥ 1.5 |  |  |  |
| CN(C)c1ccc(Nc2cc(=O)n(C)c3c2c(=O)n(CC(F)(F)F)c(=O)n3-c2ccccc2)cc1 [Example 1-93] | ≥ 1.2 |  | ≥ 1.5 |  |  |  |
| CCn1c(=O)c2c(Nc3ccc(Cl)cc3)cc(=O)n(C)c2n(-c2ccc(Cl)cc2)c1=O [Example 1-94] |  |  | ≥ 1.5 |  |  | ≥ 1.2 |
| Cc1ccccc1-n1c(=O)n(C)c(=O)c2c(Nc3ccc(Br)cc3)cc(=O)n(C)c21 [Example 1-95] | ≥ 1.2 | 100 to 1000 | ≥ 1.5 |  |  |  |
| CCn1c(=O)c2c(Nc3ccc(N(C)C)cc3)cc(=O)n(C)c2n(-c2ccccc2)c1=O [Example 1-97] | ≥ 1.2 | 100 to 1000 | ≥ 1.5 |  |  |  |
| Cc1ccccc1-n1c(=O)n(C)c(=O)c2c(Nc3ccc(N(C)C)cc3)cc(=O)n(C)c21 [Example 1-99] | ≥ 1.2 | 100 to 1000 | ≥ 1.5 |  |  |  |
| Cn1c(=O)cc(Nc2ccc(Cl)cc2)c2c(=O)n(C3CC3)c(=O)n(-c3ccccc3F)c21 [Example 1-100] | ≥ 1.2 | 100 to 1000 | ≥ 1.5 |  |  |  |
| Cc1ccccc1-n1c(=O)n(C2CC2)c(=O)c2c(Nc3ccc(Cl)cc3)cc(=O)n(C)c21 [Example 1-102] | ≥ 1.2 |  | ≥ 1.5 |  |  |  |
| CCc1ccccc1-n1c(=O)n(C2CC2)c(=O)c2c(Nc3ccc(Cl)cc3)cc(=O)n(C)c21 [Example 1-103] | ≥ 1.2 |  | ≥ 1.5 |  |  |  |
| COc1ccccc1-n1c(=O)n(C2CC2)c(=O)c2c(Nc3ccc(Cl)cc3)cc(=O)n(C)c21 [Example 1-104] | ≥ 1.2 |  | ≥ 1.5 |  |  |  |
| C#Cc1ccc(Nc2c3c(=O)n(C4CC4)c(=O)n(-c4cccc(NC(C)=O)c4)c3c(C)c(=O)n2C)c(F)c1 [Example 4-3, N-{3-[3-cyclopropyl-5-(4-ethynyl-2-fluorophenylamino)-6,8-dimethyl-2,4,7-trioxo-3,4,6,7-tetrahydro-2H-pyrido[4,3-d]pyrimidin-1-yl]phenyl}acetamide] |  | < 10 | ≥ 1.5 | 10 to 100 | ≥ 1.5 | ≥ 1.2 |
| Cc1c(=O)n(C)c(Nc2ccc(I)cc2F)c2c(=O)n(C3CC3)c(=O)n(-c3cccc(NC(=O)CO)c3)c12 [Example 4-82] |  | < 10 | ≥ 1.5 | 10 to 100 | ≥ 1.5 | ≥ 1.2 |
